Reference: patent US20240409935A1, “Atg8ylation coordinates stress granule formation and mTOR inactivation in response to lysosomal damage” (priority 2023, published 2024)

Experiments:
NUFIP2 = experiment: Confocal microscopy of NUFIP2 localisation in Huh7 cells; assay type: cell-based, human; conditions: 2 mM LLOMe for 30 min
Experimental: Huh7 cells Were treated with 2 mM LLOMe for 30 min and stained for endogenous G3BP1 and NUFIP2. Scale bar, 5 μm. […] The sequence in red (SEQ ID NO: 1), predicted NLS in NUFIP2, was deleted for generating NUFIP2ΔNLS. […] FIG. 4SG show the quantification by HCM of overlaps between mTOR and LAMP2 in Gal8WT^HeLa or Gal8KO^HeLa cells treated with 2 mM LLOMe for 30 min. White masks, algorithm-defined cell boundaries. Yellow masks, computer-identified overlap of mTOR and LAMP2. […] Red masks, computer-identified G3BP1 puncta. Ctrl, control (untreated cells). Data, means±SEM; HCM: n≥3 (each experiment: 500 valid primary objects/cells per Well, ≥5 Well s/sample). †p≥0.05 (not significant), **p<0.01, ANOVA. See also FIG. 3 and FIG. 4.

PKR = experiment: Immunoblot analysis of PKR (T446) phosphorylation in U2OS cells; assay type: cell-based, human; conditions: 2 mM LLOMe for 30 min
Excerpt: The level of phosphorylation of eIF2α (S51) is quantified based on three independent experiments. […] Red masks, computer-identified G3BP1 puncta. […] Ctrl, control (untreated cells). Data, means±SEM; HCM: n≥3 (each experiment: 500 valid primary objects/cells per Well, ≥5 Well s/sample). *p<0.05, **p<0.01, ANOVA. See also FIG. 2S.

mTOR [1] = experiment: mTOR/mTORC1 activity by phosphorylation of its substrates (4EBP1 S65, ULK1 S757, S6K1 T389) in U2OS cells; assay type: cell-based, human; conditions: U2OS cells
[2] = test system: G3BP1 puncta in Huh7 cells; experiment: HCM quantification of G3BP1 puncta in Huh7 cells; assay type: cell-based, human; conditions: 2 mM LLOMe for 30 min
[3] = test system: G3BP1+ SGs and lysosomes (LAMP2); experiment: HCM quantification of G3BP1+ SGs associated with lysosomes (LAMP2); assay type: cell-based; conditions: 30 min after exposure to LLOMe
Experimental: Do SGs induced by lysosomal damage associate with lysosomes? The inventors addressed this by imaging analysis. By confocal fluorescence microscopy, the majority of G3BP1-positive SGs formed during lysosomal damage were either independent of lysosomes or juxtaposed to lysosomes (FIG. 3SA). By HCM quantification, only 10% of G3BP1^+ SGs appeared associated with lysosomes (LAMP2) 30 min after exposure to lysosomal damaging agent LLOMe. The inventors then asked the question whether SGs formed in response to lysosomal damage initiate as a nidus on the lysosomal surface. Using live microscopy, the inventors observed that the majority of SGs Were forming in locations independent of lysosomes (FIG. 3SB).

ATF4 = experiment: Immunoblot analysis of ATF4 in U2OS cells; assay type: cell-based, human; conditions: 2 mM LLOMe, indicated time points
mTOR [4] = experiment: Immunoblot analysis of S6K1 (T389) phosphorylation in HeLa cells; assay type: cell-based, human; conditions: HeLa (WT) cells, 4 mM LLOMe for 30 min
[5] = test system: G3BP1 puncta in BMM (bone-marrow-derived macrophages); experiment: HCM quantification of G3BP1 puncta in BMM; assay type: cell-based, murine; conditions: 2 mM LLOMe for 2 h
Experimental: Three groups of proteins are labeled (ESCRT components in green, autophagy factors in blue and stress granule components in purple). […] The dotted orange line indicates the significance cut-off (P<0.05). […] The significant increased proteins in LysoIP LC/MS/MS were analyzed by STRING functional protein association networks. […] Strength, Log 10(observed/expected) describes how large the enrichment effect is. […] TMEM192-2×FLAG, control. […] U20S cells Were treated with Earle's Balanced Salt Solution (EBSS), 4 mM LOMe, 2 mM LLOMe, 200 μM GPN, or 400 μg/mL silica for 30 min. White masks, algorithm-defined cell boundaries (primary objects); red masks, computer-identified G3BP1 puncta (target objects). […] The level of phosphorylation of eIF2α (S51) is quantified based on three independent experiments. […] The level of ATF4 and phosphorylation of eIF2α (S51) and 4EBP1 (S65) are quantified based on three independent experiments. […]
The inventors tested whether lysosomal damage induces SG formation using the conventional marker of SGs G3BP1 (Jain et al., 2016; Kedersha et al., 2005; Yang et al., 2020). […] For unbiased quantification, the inventors employed high content microscopy (HCM), which depends on epifluorescence mode to capture all cellular profiles in a volume. […] In all cell lines and primary cells tested, SG formation was observed upon lysosomal damage and quantified by HCM.

GABARAP = experiment: Immunoblot analysis of GABARAP lipidation in U2OS cells; assay type: cell-based, human; conditions: 2 mM LLOMe, indicated time points
[6] = test system: DCP1a puncta (P-bodies) in U2OS cells; experiment: HCM quantification of DCP1a puncta (P-body formation) in U2OS cells; assay type: cell-based, human; conditions: 2 mM LLOMe for 30 min
[7] = test system: polyA RNA in G3BP1 puncta; experiment: Confocal microscopy of G3BP1 and polyA RNA (Cy3-oligo[dT]) by FISH in U2OS cells; assay type: cell-based, human; conditions: 2 mM LLOMe for 30 min

Structure (SMILES): COC(=O)[C@H](CC(C)C)NC(=O)[C@@H](N)CC(C)C [LLOMe, L-leucyl-L-leucine methyl ester]
- NUFIP2 localisation upon lysosomal damage (NUFIP2): NUFIP2 translocated from the nucleus into the cytosol
- PKR activation assessed by phosphorylation at Thr446 (PKR): PKR was activated
- ULK1 phosphorylation by mTOR at Ser757 (mTOR [1]; 2 mM LLOMe for 30 min): diminished
- mTOR activity as measured by 4EBP1 phosphorylation (mTOR [1]; 2 mM LLOMe, indicated time points): inhibition of mTOR
- mTORC1 inactivation (4EBP1 S65), dose dependence (mTOR [1]; indicated dose of LLOMe for 30 min): mTORC1 inactivation in a dose-dependent manner
- SG response (G3BP1 puncta) [2]: SG response was detected
- G3BP1+ SGs associated with lysosomes (LAMP2) [3]: 10%
- ATF4 expression (ATF4): increased ATF4 expression over time
- pT389 S6K levels (mTOR activity) (mTOR [4]): drop in pT389 S6K levels
- SG formation (G3BP1 puncta) [5]: SGs Were detected
- GABARAP lipidation (GABARAP): GABARAP was lipidated
- P-body formation (DCP1a marker) [6]: did not induce P-body
- overlap of G3BP1 puncta with polyA RNA probe (Cy3-oligo-dT, FISH) [7]: completely overlapped with polyA RNA probe
